Measured values: patent publication US20090275594A1, “3-HYDRAZONE PIPERAZINYL RIFAMYCIN DERIVATIVES USEFUL AS ANTIMICROBIAL AGENTS” (priority 2008, published 2009)
In brackets after ≈: the same amount, converted by molar mass.

Key:
Assay type in all cases: cell-based
Conditions in all cases: cation adjusted Mueller-Hinton broth, 35° C., 16-20 hours
[1] = tested on: Staphylococcus aureus ATCC 29213; test: In vitro antibacterial activity, microdilution broth MIC (NCCLS M7-A4), strain B
Experimental: (§1) Minimum inhibitory concentration (MIC) is an indicator of in vitro antibacterial activity. […] The in vitro antimicrobial activity of representative compounds of the present invention was determined by the microdilution broth method following the test method from the National Committee for Clinical Laboratory Standards (NCCLS). This method is described in the NCCLS Document M7-A4, Vol. 17, No. 2, “Methods for Dilution Antimicrobial Susceptibility Test for Bacteria that Grow Aerobically—Fourth Edition”, which is incorporated herein by reference.
(§2) In this method two-fold serial dilutions of drug in cation adjusted Mueller-Hinton broth were added to wells in microdilution trays. The test organisms were prepared by adjusting the turbidity of actively growing broth cultures so that the final concentration of test organism after it is added to the wells was approximately 5×10^4 CFU/well. Following inoculation of the microdilution trays, the trays were incubated at 35° C. for 16-20 hours and then read. The amount of growth in the wells containing the test compound was compared with the amount of growth in the growth-control wells (no test compound) used in each tray.

[2] = tested on: Enterococcus faecium OC 3312 vancomycin-resistant; test: In vitro antibacterial activity, microdilution broth MIC (NCCLS M7-A4), strain A
Experimental: as §1, §2

[3] = tested on: Staphylococcus aureus OC4172; test: In vitro antibacterial activity, microdilution broth MIC (NCCLS M7-A4), strain D
Experimental: as §1, §2

[4] = tested on: Methicillin-resistant Staphylococcus aureus OC 3726 COL; test: In vitro antibacterial activity, microdilution broth MIC (NCCLS M7-A4), strain C
Experimental: as §1, §2

| SMILES | MIC (μg/mL) B Strain [1] [µg/mL] | MIC (μg/mL) A Strain [2] [µg/mL] | MIC (μg/mL) D Strain [3] [µg/mL] | MIC (μg/mL) C Strain [4] [µg/mL] |
| --- | --- | --- | --- | --- |
| COC1C=COC2(C)Oc3c(C)c(O)c4c(O)c(c(C=NN5CCN(Cc6noc(-c7ccc(Cl)cc7)n6)CC5)c(O)c4c3C2=O)NC(=O)C(C)=CC=CC(C)C(O)C(C)C(O)C(C)C(OC(C)=O)C1C (stereo not drawn) [Compound 25] | 0.5 (≈ 0.499 µM) | 0.5 (≈ 0.499 µM) | 0.25 (≈ 0.25 µM) | 0.25 (≈ 0.25 µM) |
| COC1C=COC2(C)Oc3c(C)c(O)c4c(O)c(c(C=NN5CCN(CCc6cc(-c7ccc(Cl)cc7)no6)CC5)c(O)c4c3C2=O)NC(=O)C(C)=CC=CC(C)C(O)C(C)C(O)C(C)C(OC(C)=O)C1C (stereo not drawn) [Compound 26] | 0.5 (≈ 0.493 µM) | 0.5 (≈ 0.493 µM) | 0.25 (≈ 0.246 µM) | 0.25 (≈ 0.246 µM) |
| COC1C=COC2(C)Oc3c(C)c(O)c4c(O)c(c(C=NN5CCN(CCCc6cc(-c7ccccc7)no6)CC5)c(O)c4c3C2=O)NC(=O)C(C)=CC=CC(C)C(O)C(C)C(O)C(C)C(OC(C)=O)C1C (stereo not drawn) [Compound 27] | 0.5 (≈ 0.503 µM) | 0.5 (≈ 0.503 µM) | 0.5 (≈ 0.503 µM) | 0.5 (≈ 0.503 µM) |
